Source: PubChem BioAssay (NCI)
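Exposure lasted 48 hours, with cells grown in 96-well plates and compounds tested at five concentrations. TGI is the concentration that stops growth completely.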

Key:
Experiment in all cases: growth of human tumour cells (NCI), 48 h
NCI-H23 lung = system: NCI-H23 lung
SW-620 colon = system: SW-620 colon
UACC-257 melanoma = system: UACC-257 melanoma
M14 melanoma = system: M14 melanoma
SF-295 CNS = system: SF-295 CNS
HOP-92 NSCLC = system: HOP-92 NSCLC
DU-145 prostate = system: DU-145 prostate
NCI-H460 lung = system: NCI-H460 lung
RPMI-8226 leukemia = system: RPMI-8226 leukemia
UACC-62 melanoma = system: UACC-62 melanoma
SK-MEL-2 melanoma = system: SK-MEL-2 melanoma

| Structure (SMILES) | TGI (NCI-H23 lung) | TGI (SW-620 colon) | TGI (UACC-257 melanoma) | TGI (M14 melanoma) | TGI (SF-295 CNS) | TGI (HOP-92 NSCLC) | TGI (DU-145 prostate) | TGI (NCI-H460 lung) | TGI (RPMI-8226 leukemia) | TGI (UACC-62 melanoma) | TGI (SK-MEL-2 melanoma) |
| --- | --- | --- | --- | --- | --- | --- | --- | --- | --- | --- | --- |
| COc1ccccc1NC(=S)N/N=C(/c1ccccc1)c1ccccn1 | 24.3 µM | 18.4 µM | 1.13 µM | 9.52 µM | 7.17 µM | 15.6 µM | 4.95 µM | 13.3 µM | 6.14 µM | 9.23 µM | 21.7 µM |
| C(=N\NC1=NCCCN1)/c1ccc(-c2cn3cc(/C=N/NC4=NCCCN4)ccc3n2)cc1 | > 100 µM | > 100 µM | > 100 µM | > 100 µM | > 100 µM | > 100 µM | > 100 µM | > 100 µM | > 88.6 µM | > 100 µM | > 100 µM |
| CC(C)(C)[Si](C)(C)OCC1OC(n2ccc(=O)[nH]c2=O)C(O[Si](C)(C)C(C)(C)C)/C1=N/O (configuration not stated) | 14.8 µM | > 37.8 µM | 16.7 µM | 12 µM | > 40.7 µM | 8.95 µM | 28.5 µM | 12.5 µM | 7.75 µM | 24.8 µM | 9.48 µM |
| Brc1ccc(-c2ccc(-c3ccc(Br)s3)s2)s1 | > 100 µM | > 100 µM | > 100 µM | > 100 µM | > 100 µM | > 100 µM | > 100 µM | > 100 µM | > 100 µM | > 100 µM | > 100 µM |
| CC(C)(C)c1cc(C2COC(=O)COCCOCC(=O)OCCOCCO2)cc(C(C)(C)C)c1O (configuration not stated) | 99.1 µM | > 100 µM | > 100 µM | > 100 µM | 53.7 µM | 59.4 µM | 37.1 µM | > 100 µM | > 100 µM | > 100 µM | > 100 µM |
| COC(=O)c1ccc(/C=C/C2=CC(=O)C=CC2=O)cc1 | 42.4 µM | 48 µM | 34.8 µM | > 67.2 µM | 78.2 µM | 32.7 µM | > 100 µM | > 64.6 µM | 4.49 µM | 40.2 µM | > 62.1 µM |
| COc1ccc(N=NN2CCCC2)cc1 | > 100 µM | 81.4 µM | > 100 µM | > 100 µM | > 100 µM | 42.4 µM | > 100 µM | > 100 µM | 74.1 µM | > 100 µM | > 100 µM |
| OC1(c2ccc(Cl)cc2)c2ccccc2C2=Nc3ccccc3CN21 (configuration not stated) | > 100 µM | > 100 µM | > 100 µM | > 100 µM | > 50.4 µM | > 100 µM | > 100 µM | > 100 µM | > 100 µM | > 100 µM | > 89.6 µM |
| C#CCNC(Cc1ccccc1)C(=O)O (configuration not stated) | > 100 µM | > 100 µM | > 100 µM | > 100 µM | > 100 µM | > 100 µM | > 100 µM | > 100 µM | > 100 µM | > 100 µM | > 100 µM |
| CCOC(=O)c1c(OCC)[nH]c(=O)c(C(c2ccc(F)cc2)c2c(O)c(C(=O)OCC)c(OCC)[nH]c2=O)c1O | 43.6 µM | 51.1 µM | 37.3 µM | 63.3 µM | 49.8 µM | 18.1 µM | 24.3 µM | 36.5 µM | 58.3 µM | 30.3 µM | 37 µM |
| C=C1C(=O)O[C@H]2C1C[C@@H](O)[C@@]1(C)OC1CC[C@@]1(C)O[C@H]21 (some centres not stated) | 37.4 µM | 38.5 µM | 42.3 µM | 31.3 µM | > 100 µM | 32.6 µM | > 100 µM | > 100 µM | 32.1 µM | 31.4 µM | 47.1 µM |
| COC(=O)c1c(C)nc(C)c(N=O)c1-c1ccccc1C(F)(F)F | 48.5 µM | 30.1 µM | 32.8 µM | 47.1 µM | > 100 µM | 34.8 µM | > 100 µM | > 100 µM | > 100 µM | > 100 µM | > 100 µM |
